Results on eight compounds are retold here after patent publication US20240092761A1, “QUINAZOLINE COMPOUNDS AND METHODS OF USE” (IAMBIC THERAPEUTICS, INC., priority 2022, published 2024).

One assay addresses CDK6/Cyclin D3 (Homo sapiens (Human), UniProt Q00534). The assay is described as follows: CDK6/Cyclin D3 ADP-Glo Kinase Assay. It counts as biochemical. The following applies: 100 uM ATP, read-out: CDK6/ CyclinD3 IC50. The method, then:
CDK6/Cyclin D3 ADP-Glo Kinase Assay
The purpose of the CDK6/Cyclin D3 assay is to evaluate the inhibition (% inhibition and IC50 values) in the presence of small molecule inhibitors by using a Luminescent based ADP-Glo assay. CDK6/Cyclin D3 catalyzes the production of ADP from ATP. ADP-Glo assay monitors ADP producing biochemical reactions. ADP-Glo is performed in 2 steps upon completion of kinase reaction: a combined termination of kinase reaction and depletion of remaining ATP in the first step, and conversion of generated ADP to ATP and the newly produced ATP to light output using luciferase/luciferin reaction in the second step. The luminescent signal generated is proportional to the ADP concentration produced and is correlated with the kinase activity. CDK6/Cyclin D3 was purchased from Carna. […] The assay was initiated with the addition of ATP-containing substrate solution, following a 30-minute pre-incubation of enzyme and inhibitor at room temperature in the reaction mixture. The reaction was stopped after 90 minutes at room temperature by the addition of 10 uL of ADP-GLO Reagent. After a 90-minute incubation, 20 uL of Kinase Detection Reagent was added. Samples were incubated for 40 minutes, after which plate well luminescence was measured on a Envision microplate reader. The IC50 determinations were made from a plot of the fractional velocity as a function of inhibitor concentration fit to the 4 parameters IC50 equation.

Assay [1] concerns the target CDK2/Cyclin E1 full length (Homo sapiens (Human), UniProt P24941). The assay is described as follows: CDK2/Cyclin E1 Full Length ADP-Glo Kinase Assay. It counts as biochemical. The following applies: 20 uM ATP, read-out: CDK2/ CyclinE1 IC50. Here is the method:
CDK2/Cyclin E1 Full Length ADP-Glo Kinase Assay
The purpose of CDK2/Cyclin E1 assay is to evaluate the inhibition (% inhibition and IC50 values) of small molecule inhibitors by using a Luminescent based ADP-Glo assay. CDK2/Cyclin E1 full length catalyzes the production of ADP from ATP. ADP-Glo assay monitors ADP producing biochemical reactions. ADP-Glo is performed in 2 steps upon completion of kinase reaction: a combined termination of kinase reaction and depletion of remaining ATP in the first step, and conversion of generated ADP to ATP and the newly produced ATP to light output using luciferase/luciferin reaction in the second step. The luminescent signal generated is proportional to the ADP concentration produced and is correlated with the kinase activity. CDK2/Cyclin E1 was purchased from Eurofins (Cat 14-475M). Typical reaction solutions (10 uL final reaction volume) contained 2% DMSO (f inhibitor), 10 mM MgCI2, 1 mM EGTA, 0.05% BSA, 2 mM DTT, 20 uM ATP (ATP Km=64.78 uM), 0.01% Brig-35, 0.75 uM substrate, and 0.328 nM wild-type full length CDK2/Cyclin E1 enzyme complex in 50 mM HEPES buffer at pH 7.5. The assay was initiated with the addition of ATP-containing substrate solution, following a 30-minute pre-incubation of enzyme and inhibitor at room temperature in the reaction mixture. The reaction was stopped after 90 minutes at room temperature by the addition of 10 uL of ADP-GLO Reagent. After a 90 minute incubation, 20 uL of Kinase Detection Reagent was added. Samples were incubated for 40 minutes, after which plate well luminescence was measured on a Envision microplate reader. The IC50 determinations were made from a plot of the fractional velocity as a function of inhibitor concentration fit to the 4 parameters IC50 equation.

The subject of a further assay is MCF-7 cells. In words: Cell Growth Inhibition, MCF-7 (CellTiterGlo, 6 days). It is filed as cell-based. The following applies: Homo sapiens, MCF7, 144 h; MCF-7, 6-day treatment, CellTiterGlo 2.0. From the text:
(§1) MCF-7 and OVCAR-3 cells were used to evaluate the anti-proliferation activity of the CDK inhibitors. MCF-7 (ATCC, HTB-22) cells are epithelial cells from a patient with ER+ metastatic adenocarcinoma. OVCAR-3 (ATCC, HTB-161) cells were derived from malignant ascites of a patient with ovarian cancer and are known to have CCNE1 amplification. Both cell lines were maintained in RPMI media supplemented with 10% fetal bovine serum. For cell growth inhibition assay, CDK inhibitors in DMSO solution were dispensed with either Echo 655 (Beckman Coulter) or Tecan D300e (HP) into 384-well plates (Corning #3765) and the 384-well plates were UV-sterilized prior to the assay. The inhibitors were typically tested in the 10-10,000 nM concentration range with half-log serial dilutions. MCF-7 or OVCAR-3 (500 cells/30 μL/well) were added to each well using Multidrop Combi (ThermoFisher) using standard cassettes. The assay plates with cells were cultured at 37° C., 5% CO2 for 6 days. At the end of the 6-day treatment, 30 μL of CellTiterGlo 2.0 (Promega) was added to each well and the luminescent signal was read using CLARIOstar plus (BMG). The percentage of cell growth inhibition (% CGI) was calculated using the following formula % CGI=100−100×luminescencesample/luminescencecontrol. The half maximal inhibitory concentration (IC50) was determined by nonlinear curve fitting (four parameters, variable slope).

The target of a further assay is CDK4/Cyclin D1 (Homo sapiens (Human), UniProt P11802). In words: CDK4/Cyclin D1 CHEF Assay (AQT0258 peptide). The following applies: 200 uM ATP, read-out: CDK4/ CyclinD1 AQT IC50. It is filed as biochemical. From the text:
CDK4/Cyclin D1 CHEF Assay
The purpose of CDK4/Cyclin Dl assay is to evaluate the inhibition (% inhibition and IC50 values) of small molecule inhibitors by using a Chelation-Enhance Fluorescence (CHEF) assay. In a CHEF assay, phosphorylation of a peptide substrate results in proportional increase in fluorescence. CHEF kinase assay use peptide substrates containing a synthetic alpha-amino acid with a side chain bearing an 8-hydroxyquinoline derivative (sulfonamido-oxide, Sox). Upon phosphorylation of a nearby serine, threonine or tyrosine and in the presence of Mg(II), the spectral properties of the Sox residue are altered, emitting 485 nm wavelength light when excited with a 360 nm wavelength light source. CDK4/Cyclin D1 catalyzes the phosphoryl transfer to the SOX-labeled substrate peptide AQT0258 from Assayquant Technologies. Typical reaction solutions contained 2% DMSO (+/−inhibitor), 10 mM MgCl2, 1 mM DTT, 200 uM ATP (ATP Km=195.2 uM), 0.012% Brig-35, 10 uM AQT0258 peptide, 0.02% BSA, 1% Glycerol, 0.55 mM EGTA, 2.5 nM CDK4/Cyclin D1 in 54 mM HEPES buffer at pH 7.5. The reaction was initiated with the addition of substrate solution, following a 30-minute pre-incubation of enzyme and inhibitor at 22° C. in the reaction mix. Reactions were allowed to proceed for 3 hrs at 22° C., followed by fluorescence read of the reaction. The IC50 determinations were made from a plot of the fractional velocity as a function of inhibitor concentration fit to the 4 parameters IC50 equation.

The target of the next assay is CDK1/Cyclin B1 (Homo sapiens (Human), UniProt P06493). The assay is described as follows: CDK1/Cyclin B1 ADP-Glo Kinase Assay. It is filed as biochemical. The settings on record: 80 uM ATP. Here is the method: CDK1/Cyclin B1 ADP-Glo Kinase Assay
The purpose of CDK1/Cyclin B1 assay is to evaluate the inhibition (% inhibition and IC50 values) of small molecule inhibitors by using a Luminescent based ADP-Glo assay. CDK1/Cyclin B1 catalyzes the production of ADP from ATP. ADP-Glo assay monitors ADP producing biochemical reactions. ADP-Glo is performed in 2 steps upon completion of kinase reaction: a combined termination of kinase reaction and depletion of remaining ATP in the first step, and conversion of generated ADP to ATP and the newly produced ATP to light output using luciferase/luciferin reaction in the second step. The luminescent signal generated is proportional to the ADP concentration produced and is correlated with the kinase activity. CDK1/Cyclin B1 was purchased from Carna (Cat 04-102). Typical reaction solutions (10 uL final reaction volume) contained 2% DMSO (f inhibitor), 10 mM MgCl2, 1 mM EGTA, 0.05% BSA, 2 mM DTT, 80 uM ATP (ATP Km=78.6 uM), 0.01% Brig-35, 0.75 uM substrate, and 4.917 nM CDK1/Cyclin Bl enzyme complex in 50 mM HEPES buffer at pH 7.5. The assay was initiated with the addition of ATP-containing substrate solution, following a 30-minute pre-incubation of enzyme and inhibitor at room temperature in the reaction mixture. The reaction was stopped after 90 minutes at room temperature by the addition of 10 uL of ADP-GLO Reagent. After a 90 minute incubation, 20 uL of Kinase Detection Reagent was added. Samples were incubated for 40 minutes, after which plate well luminescence was measured on a Envision microplate reader. The IC50 determinations were made from a plot of the fractional velocity as a function of inhibitor concentration fit to the 4 parameters IC50 equation.

Another assay has as its system OVCAR-3 cells. In words: Cell Growth Inhibition, OVCAR-3 (CellTiterGlo, 6 days). It counts as cell-based. The following applies: Homo sapiens, 144 h; OVCAR-3, 6-day treatment, CellTiterGlo 2.0.
Excerpt: as §1

CDK1/Cyclin B1, sequence (P06493 whole entry): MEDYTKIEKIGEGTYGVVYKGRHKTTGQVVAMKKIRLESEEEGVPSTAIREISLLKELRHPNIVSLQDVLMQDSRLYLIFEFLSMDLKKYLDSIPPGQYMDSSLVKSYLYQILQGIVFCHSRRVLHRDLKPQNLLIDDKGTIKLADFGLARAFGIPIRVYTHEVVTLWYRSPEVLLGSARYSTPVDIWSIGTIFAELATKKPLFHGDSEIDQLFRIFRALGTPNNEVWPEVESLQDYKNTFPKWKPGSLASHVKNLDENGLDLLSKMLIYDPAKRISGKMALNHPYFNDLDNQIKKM
CDK1/Cyclin B1, sequence (P14635 whole entry partner): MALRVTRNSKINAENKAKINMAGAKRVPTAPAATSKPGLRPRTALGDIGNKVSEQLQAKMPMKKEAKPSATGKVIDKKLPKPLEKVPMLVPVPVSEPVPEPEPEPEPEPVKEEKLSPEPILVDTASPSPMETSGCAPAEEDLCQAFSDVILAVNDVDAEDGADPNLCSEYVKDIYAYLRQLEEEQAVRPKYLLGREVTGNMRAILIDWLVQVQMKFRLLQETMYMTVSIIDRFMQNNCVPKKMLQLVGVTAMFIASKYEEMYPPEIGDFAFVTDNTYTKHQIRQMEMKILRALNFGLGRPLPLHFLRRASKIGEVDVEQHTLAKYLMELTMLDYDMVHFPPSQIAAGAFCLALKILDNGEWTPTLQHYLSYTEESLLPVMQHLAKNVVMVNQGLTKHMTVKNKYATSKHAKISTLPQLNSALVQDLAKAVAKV
CDK4/Cyclin D1, sequence (P11802 whole entry): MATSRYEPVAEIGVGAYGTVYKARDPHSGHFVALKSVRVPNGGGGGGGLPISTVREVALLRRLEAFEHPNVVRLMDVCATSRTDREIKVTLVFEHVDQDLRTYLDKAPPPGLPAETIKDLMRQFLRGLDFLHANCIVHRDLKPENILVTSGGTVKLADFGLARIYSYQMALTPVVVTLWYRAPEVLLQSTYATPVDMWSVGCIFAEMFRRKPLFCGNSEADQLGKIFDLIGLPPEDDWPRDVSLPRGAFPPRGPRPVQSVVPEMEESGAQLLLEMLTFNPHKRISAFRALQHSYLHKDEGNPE
CDK4/Cyclin D1, sequence (P24385 whole entry partner): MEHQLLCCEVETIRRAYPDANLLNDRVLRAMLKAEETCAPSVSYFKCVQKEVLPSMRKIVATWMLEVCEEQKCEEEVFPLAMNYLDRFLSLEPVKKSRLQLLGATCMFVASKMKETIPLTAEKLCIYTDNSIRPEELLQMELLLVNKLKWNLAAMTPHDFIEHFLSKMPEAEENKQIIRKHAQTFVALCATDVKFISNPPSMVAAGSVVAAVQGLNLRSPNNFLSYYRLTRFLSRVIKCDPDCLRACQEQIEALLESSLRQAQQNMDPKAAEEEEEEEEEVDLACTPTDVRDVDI
CDK6/Cyclin D3, sequence (Q00534 whole entry): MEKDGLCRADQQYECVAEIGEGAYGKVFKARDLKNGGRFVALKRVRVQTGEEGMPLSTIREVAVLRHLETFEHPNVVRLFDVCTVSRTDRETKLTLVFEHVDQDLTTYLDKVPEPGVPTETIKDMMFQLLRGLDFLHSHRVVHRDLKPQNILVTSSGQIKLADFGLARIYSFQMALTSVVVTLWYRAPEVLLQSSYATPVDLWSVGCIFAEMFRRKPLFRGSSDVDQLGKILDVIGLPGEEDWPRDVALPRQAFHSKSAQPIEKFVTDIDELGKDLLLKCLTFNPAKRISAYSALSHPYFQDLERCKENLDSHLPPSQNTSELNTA
CDK6/Cyclin D3, sequence (P30281 whole entry partner): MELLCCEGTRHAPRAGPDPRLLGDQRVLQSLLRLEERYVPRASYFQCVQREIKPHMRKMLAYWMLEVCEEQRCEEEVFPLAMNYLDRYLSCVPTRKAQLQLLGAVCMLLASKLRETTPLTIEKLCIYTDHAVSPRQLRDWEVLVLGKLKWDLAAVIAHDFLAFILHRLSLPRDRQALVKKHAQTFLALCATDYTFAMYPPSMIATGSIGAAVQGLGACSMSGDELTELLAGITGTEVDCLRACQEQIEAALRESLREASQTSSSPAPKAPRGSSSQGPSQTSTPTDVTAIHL

For the compound `CS(=O)(=O)N1CCC(Nc2ncc3cc(C(F)F)cc(C4CC5(CCN(CC(F)F)C5)C4)c3n2)CC1` (stereo not drawn) [Example 100, 8-(6-(2,2-difluoroethyl)-6-azaspiro[3.4]octan-2-yl)-6-(difluoromethyl)-N-(1-(methylsulfonyl)piperidin-4-yl)quinazolin-2-amine], the IC50 on CDK6/Cyclin D3 is less than 0.2 µM; in assay [1] it was less than 0.2 µM; with MCF-7 cells it was 0.2 to 0.5 µM; on CDK4/Cyclin D1, less than 0.2 µM; on CDK1/Cyclin B1, less than 0.2 µM; in the assay on OVCAR-3 cells, 0.5 to 2 µM.

Regarding `CN1CC2(CC(n3cc(Nc4ncc5cc(C(F)F)cc(N6CCC(C#N)(C7CC7)C6)c5n4)cn3)C2)C1` (stereo not drawn) [Example 60, 3-cyclopropyl-1-(6-(difluoromethyl)-2-((1-(2-methyl-2-azaspiro[3.3]heptan-6-yl)-1H-pyrazol-4-yl)amino)quinazolin-8-yl)pyrrolidine-3-carbonitrile], the IC50 on CDK6/Cyclin D3 was less than 0.2 µM; in assay [1] it was 0.2 to 0.5 µM; with MCF-7 cells, 0.5 to 2 µM; at CDK4/Cyclin D1, less than 0.2 µM; on CDK1/Cyclin B1, 0.5 to 2 µM; in the assay with OVCAR-3 cells, 0.5 to 2 µM.

With `CC(C)(F)CN1CCC2(CC(c3cc(C(F)F)cc4cnc(NC5CCN(S(C)(=O)=O)CC5)nc34)C2)C1` (stereo not drawn) [Example 103, 6-(difluoromethyl)-8-(6-(2-fluoro-2-methylpropyl)-6-azaspiro[3.4]octan-2-yl)-N-(1-(methylsulfonyl)piperidin-4-yl)quinazolin-2-amine], the IC50 at CDK6/Cyclin D3 was less than 0.2 µM; in assay [1], less than 0.2 µM; with MCF-7 cells, 0.2 to 0.5 µM; at CDK4/Cyclin D1 it was less than 0.2 µM; at CDK1/Cyclin B1, less than 0.2 µM; in the assay with OVCAR-3 cells, 0.5 to 2 µM.

On to `CS(=O)(=O)N1CCC(Nc2ncc3cc(C(F)F)cc(C4CC5(CCN(C6COC6)C5)C4)c3n2)CC1` (stereo not drawn) [Example 102, 6-(difluoromethyl)-N-(1-(methylsulfonyl)piperidin-4-yl)-8-(6-(oxetan-3-yl)-6-azaspiro[3.4]octan-2-yl)quinazolin-2-amine], for which the IC50 on CDK6/Cyclin D3 is less than 0.2 µM; in assay [1], less than 0.2 µM; in the assay on MCF-7 cells, 0.2 to 0.5 µM; at CDK4/Cyclin D1, less than 0.2 µM; at CDK1/Cyclin B1, less than 0.2 µM; with OVCAR-3 cells it was 0.2 to 0.5 µM.

Take `CS(=O)(=O)N1CCC(Nc2ncc3cccc(C4CC(CO)(C(F)F)C4)c3n2)CC1` (stereo not drawn) [Example 121, (1-(difluoromethyl)-3-(2-((1-methanesulfonylpiperidin-4-yl)amino)quinazolin-8-yl)cyclobutyl]methanol]: the IC50 is less than 0.2 µM on CDK6/Cyclin D3; less than 0.2 µM in assay [1]; more than 2 µM with MCF-7 cells; less than 0.2 µM at CDK4/Cyclin D1; 0.2 to 0.5 µM against CDK1/Cyclin B1; 0.5 to 2 µM in the assay on OVCAR-3 cells.

On to `CC1(CS(=O)(=O)N2CCC(Nc3ncc4cc(C(F)F)cc(N5CC6(CCNC6)C5)c4n3)CC2)CC1` [Example 95, 6-(difluoromethyl)-N-(1-(((1-methylcyclopropyl)methyl)sulfonyl)piperidin-4-yl)-8-(2,6-diazaspiro[3.4]octan-2-yl)quinazolin-2-amine], for which the IC50 on CDK6/Cyclin D3 is less than 0.2 µM; in assay [1], less than 0.2 µM; with MCF-7 cells, 0.5 to 2 µM; at CDK4/Cyclin D1, less than 0.2 µM; against CDK1/Cyclin B1 it was less than 0.2 µM; in the assay with OVCAR-3 cells, 0.5 to 2 µM.

Regarding `CN1Cc2cc(F)c(Nc3ncc4cc(C(F)F)cc(N5CC6(CNC6)C5)c4n3)cc2C1` [Example 61, 6-(difluoromethyl)-N-(6-fluoro-2-methylisoindolin-5-yl)-8-(2,6-diazaspiro[3.3]heptan-2-yl)quinazolin-2-amine], the IC50 on CDK6/Cyclin D3 is 0.5 to 2 µM; in assay [1], less than 0.2 µM; in the assay on MCF-7 cells, more than 2 µM; on CDK4/Cyclin D1, 0.2 to 0.5 µM; against CDK1/Cyclin B1, 0.5 to 2 µM; in the assay on OVCAR-3 cells it was more than 2 µM.

In the case of `CN1Cc2ccc(Nc3ncc4cc(C(F)F)cc(N5CC6(C5)CN(S(C)(=O)=O)C6)c4n3)cc2C1` [Example 58, 6-(difluoromethyl)-N-(2-methylisoindolin-5-yl)-8-(6-(methylsulfonyl)-2,6-diazaspiro[3.3]heptan-2-yl)quinazolin-2-amine], the IC50 at CDK6/Cyclin D3 is less than 0.2 µM; in assay [1], less than 0.2 µM; in the assay on MCF-7 cells, 0.5 to 2 µM; on CDK4/Cyclin D1 it was less than 0.2 µM; against CDK1/Cyclin B1 it was 0.5 to 2 µM; in the assay on OVCAR-3 cells it was 0.5 to 2 µM.
